Laboratory results reported in publication PMC6710338, “Turning a Collagenesis-Inducing Peptide Into a Potent Antibacterial and Antibiofilm Agent Against Multidrug-Resistant Gram-Negative Bacteria” (Frontiers in Microbiology, 2019).
Values after ≈ are worked out from the molar mass of the structure shown. Values joined by “and” are separate entries in the source; they are usually repeats but may differ in a detail not shown here. Equal entries are not always repeated. Where two headings read alike, the source gives them in different places. Peptide text beside a SMILES is read from it.

What was measured:
[1] = system: HFF-1 cells; type: cell-based, human; settings: 72 h
Description: Immortalized human foreskin fibroblasts (HFF-1) were grown as a monolayer from passage number 8–16. For routine maintenance, HFF-1 cells were cultured in Dulbecco’s Modified Eagle Medium (DMEM, from Cell Lines Service) supplemented with 15% fetal bovine serum (FBS, from CLS) and 1% antibiotic/antimycotic solution (100 units/mL of penicillin, 100 μg/mL of streptomycin and 0.25 μg/mL of amphotericin B, from Sigma-Aldrich, St. Louis, MO, United States) at 37°C in an humidified atmosphere with 5% CO2. Cells were harvested by trypsinization [0.25% (w/v) trypsin-EDTA4Na, Sigma-Aldrich, St. Louis, MO, United States] twice a week.
The cytotoxicity of synthetic peptides to HFF-1 cells was evaluated using the standard MTT assay. Briefly, cells were seeded at a density of 8 × 10^4 cells/well onto 96-well plate and incubated at 37°C in a 5% CO2 atmosphere. Cells were allowed to grow for 48 h, and serially diluted peptide solutions (0.78–100 μM) were added to the wells. Then, cells were incubated for 72 h at 37°C, after which wells were washed once with phosphate buffered saline (PBS, Sigma-Aldrich, St. Louis, MO, United States), followed by addition of a 0.45 mg/mL MTT solution to each well. Crystals were allowed to form for 1.5 h. Reaction was stopped by rejecting the medium and addition of dimethylsulfoxide (DMSO, Sigma-Aldrich, St. Louis, MO, United States). Absorbance was read at 570 nm (Biotek PowerWave XS).
At the end of the cytotoxicity assays, the number of viable cells was never below that of initially plated cells. As such, data are represented as peptide concentrations causing 50% growth inhibition (IC50) on HFF-1 cells, rather than as lethal dosis values. IC50 values thus obtained are also included in Table 2.

[2] = system: MDR clinical isolates of E. coli (Ec1, Ec2, EC001, EC002, EC003); type: cell-based, Escherichia coli; settings: MHB2
Description: The minimum inhibitory concentration (MIC) of synthetic peptides was determined using the broth microdilution method in cation-adjusted Mueller-Hinton broth (MHB2 – Sigma-Aldrich, St. Louis, MO, United States), according to the recommendations of the Clinical and Laboratory Standards Institute ([CLSI, 2012]), against four reference strains, namely, P. aeruginosa ATCC 27853, E. coli ATCC 25922, S. aureus ATCC 25923 and Enterococcus faecalis ATCC 29212. MIC values of peptide 3.1-PP4 were also determined against MDR clinical isolates of P. aeruginosa (PA002, PA004, Pa3, Pa4), E. coli (Ec1, Ec2, EC001, EC002, EC003) and K. pneumoniae (KP004, KP007, KP010). The peptides were tested in the concentration range of 1–1024 μg/mL. The minimum bactericidal concentration (MBC) was determined as previously reported ([Bessa et al., 2018]).
In view of the above results, peptide conjugate 3.1-PP4 was selected for further investigation of its activity against MDR isolates of three Gram-negative bacterial species, namely, P. aeruginosa (four isolates), E. coli (five isolates), and K. pneumoniae (four isolates), whose antimicrobial resistance patterns are provided in the Supplementary Table S1. MDR isolates of K. pneumoniae were included in this analysis given (i) the high prevalence of K. pneumoniae in HAI ([Zheng et al., 2017]), (ii) that K. pneumoniae isolates used are carbanepem-resistant strains of an Enterobacteriaceae species, meaning that they are class 1 priority pathogens for the research and development of new antibiotics according to the WHO ([WHO, 2017]), and (iii) K. pneumoniae bacteria are usually better biofilm producers than the other Enterobacteriaceae species used, E. coli ([Reisner et al., 2006]). MIC values obtained are shown in Table 3, and confirm peptide’s 3.1-PP4 potent action against Gram-negative bacteria, including MDR isolates, with a selectivity index (SI), i.e., ratio of IC50 values for mammalian vs. bacterial cells, ranging from ca. 9–69. In fact, for P. aeruginosa and E. coli, MIC against MDR isolates were in the same range, or below, of those previously found for ATCC reference strains (Table 2). For K. pneumoniae, MIC values ranged between 1 and 4 μM, which is remarkable.

[3] = system: preformed biofilms of MDR K. pneumoniae isolates; experiment: Effect on 24 h preformed biofilms (OD600 of planktonic phase); type: cell-based, Klebsiella pneumoniae; settings: 20 × MIC, vs non-treated biofilm
Description: The efficacy of peptide 3.1-PP4 on 24 h preformed biofilms of PA002, PA004, KP004, KP007, and KP010 was also evaluated ([Gomes et al., 2014]). Briefly, biofilms were grown in TSB from a starting inoculum of 1 × 10^6 CFU/mL in 96-well microtiter plates. […] The optical density at 600 nm (OD600) was measured at time 0 and after incubation for 24 h at 37°C. The reduction in the biofilm proliferation was calculated in comparison to the respective non-treated biofilms. Two independent experiments were performed in triplicate.
In the case of control biofilms, the second 24 h growth period occurred in the absence of the peptide. Based on the apparent higher efficiency of peptide 3.1-PP4 to inhibit the formation of K. pneumoniae than P. aeruginosa biofilms, only two MDR isolates of the latter were included in this assay, whereas three MDR K. pneumoniae were tested. Optical density of the planktonic phase, as a measure of biofilm proliferation, was reduced in all peptide-treated biofilms, ranging from 3 to 21% reduction on P. aeruginosa isolates, and from 34 to 56% reduction on K. pneumoniae isolates (Table 4).

CC(C)C[C@H](NC(=O)[C@H](Cc1c[nH]c2ccccc12)NC(=O)[C@H](CCCCN)NC(=O)[C@H](CC(C)C)NC(=O)[C@H](CC(C)C)NC(=O)[C@H](CCCCN)NC(=O)[C@@H](N)CCCCN)C(=O)N[C@@H](CC(C)C)C(=O)N[C@@H](CCCCN)C(=O)N[C@@H](CC(C)C)C(=O)N[C@@H](CC(C)C)C(=O)N[C@@H](CCCCN)C(=O)N[C@H](C(=O)N[C@H](C(=O)N[C@@H](CCCCN)C(=O)N[C@@H](CO)C(N)=O)[C@@H](C)O)[C@@H](C)O [Peptide 3.1-PP4] (H-KKLLKWLLKLLKTTKS-NH2; N-terminus assumed)
IC50 [1]: 69 ± 5 µM | MIC ([2]; MDR E. coli isolate EC001): 2 μg/mL and 1 μM | MIC ([2]; MDR E. coli isolate EC002): 2 μg/mL and 1 μM | MIC ([2]; MDR E. coli isolate EC003): 1 µg/mL (≈ 0.515 µM) | MIC ([2]; MDR E. coli isolate Ec1): 4 µg/mL (≈ 2.06 µM) | MIC ([2]; MDR E. coli isolate Ec2): 2 μg/mL and 1 μM | % reduction in biofilm proliferation upon treatment ([3]; isolate KP004, 24 h preformed biofilm): 56% | % reduction in biofilm proliferation upon treatment ([3]; isolate KP007, 24 h preformed biofilm): 34% | % reduction in biofilm proliferation upon treatment ([3]; isolate KP010, 24 h preformed biofilm): 49%
